Results taken from patent US8337835B2, “Use of an endogenous ligand for peroxisome proliferator activated receptor alpha to treat liver disorders” (priority 2009, dated 2012).

Target: T1, PPARα (Mus musculus, UniProt P23204)
T1 construct: expressed in transfected cells; host or cells: liver of chow- or ZFD-fed WT mice on a PPARα null background, infected with AdFLAG-PPARα adenovirus
T1 sequence (P23204 1-468): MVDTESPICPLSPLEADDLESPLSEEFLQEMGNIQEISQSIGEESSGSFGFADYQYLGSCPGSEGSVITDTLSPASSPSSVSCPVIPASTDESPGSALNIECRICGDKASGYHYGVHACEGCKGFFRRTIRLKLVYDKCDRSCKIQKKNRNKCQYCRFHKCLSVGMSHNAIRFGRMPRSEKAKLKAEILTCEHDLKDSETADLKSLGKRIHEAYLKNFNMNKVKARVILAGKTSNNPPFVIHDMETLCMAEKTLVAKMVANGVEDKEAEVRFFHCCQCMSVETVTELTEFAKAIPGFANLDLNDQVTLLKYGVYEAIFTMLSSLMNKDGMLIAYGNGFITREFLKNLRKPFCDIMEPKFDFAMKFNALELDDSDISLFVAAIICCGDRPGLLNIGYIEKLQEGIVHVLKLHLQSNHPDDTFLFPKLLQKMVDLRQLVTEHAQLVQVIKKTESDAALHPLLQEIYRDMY
Test: In vivo competitive inhibition: displacement of 16:0/18:1-GPC (m/z 766) from FLAG-tagged PPARα, ESI/MS
Settings: 50 μg/g intraperitoneal; chow and zero fat diet fed WT mice on PPARα null background with AdFLAG-PPARα; 0-60 min
Method: Freshly harvested livers (˜100 mg) were gently homogenized in ice-cold non-detergent hypotonic buffer (10 mM HEPES, pH 7.9, 1.5 mM MgCl2, 10 mM KCl, 100 mM DTT, protease and phosphatase inhibitor cocktail). After an additional 10 min incubation in the hypotonic buffer, the homogenate was centrifuged at 8000×g at 4° C. for 20 min. The pellet was homogenized in ice-cold extraction buffer (10 mM HEPES, pH 7.9, 1.5 mM MgCl2, 0.21 M NaCl, 0.2 mM EDTA, 25% (v/v) glycerol, 100 mM DTT, protease and phosphatase inhibitor cocktail), placed on a rotating shaker at 4° C. for 1 h, then centrifuged at 18,000×g for 10 min. […]
The in vivo displacement of the endogenous PPARα ligand 16:0/18:1-GPC by the PPARα agonist Wy14,643 was assessed by electrospray ionization mass spectrometry (ESI/MS) Analysis. […] Wy14,643 in chow fed WT mice on a PPARα null background injected with AdFLAG-PPARα adenovirus are shown in FIGS. 4A-D. Similarly, representative ESI/MS scans of GPC species at different time intervals following an intraperitoneal injection of 50 μg/g Wy14,643 in ZFD fed mice are shown in FIGS. 4E-H. Insets in FIGS. 4A-H depict the ion at m/z 766 (16:0/18:1-GPC) that is time-dependently competed away with Wy14,643 while quantification of the relative abundance of the peak abundance of m/z 766 ion in response to Wy14,643 is shown in FIG. 4I. […]

Structure (SMILES): Cc1cccc(Nc2cc(Cl)nc(SCC(=O)O)n2)c1C [Wy14,643, 4-Chloro-6-(2,3-xylidino)-2-pyrimidinylthioacetic acid]
- displacement of 16:0/18:1-GPC (m/z 766) from PPARα: displaced from PPARα within minutes
